ChEMBL document CHEMBL1140824, “Hepatoselectivity of statins: design and synthesis of 4-sulfamoyl pyrroles as HMG-CoA reductase inhibitors” (Bioorg Med Chem Lett, 2008)

Tests used:
Hepatocyte [1] = assay: Selectivity, ratio of IC50 for rat L6 myocyte to IC50 for rat hepatocyte; format: functional
L6 = assay: Inhibition of cholesterol synthesis in rat L6 myocyte; format: functional, cell-based
[2] = target: T1, 3-hydroxy-3-methylglutaryl-coenzyme A reductase (Rattus norvegicus, UniProt P51639); assay: Inhibition of rat microsomal HMGCoA reductase
T1 sequence (P51639 whole entry): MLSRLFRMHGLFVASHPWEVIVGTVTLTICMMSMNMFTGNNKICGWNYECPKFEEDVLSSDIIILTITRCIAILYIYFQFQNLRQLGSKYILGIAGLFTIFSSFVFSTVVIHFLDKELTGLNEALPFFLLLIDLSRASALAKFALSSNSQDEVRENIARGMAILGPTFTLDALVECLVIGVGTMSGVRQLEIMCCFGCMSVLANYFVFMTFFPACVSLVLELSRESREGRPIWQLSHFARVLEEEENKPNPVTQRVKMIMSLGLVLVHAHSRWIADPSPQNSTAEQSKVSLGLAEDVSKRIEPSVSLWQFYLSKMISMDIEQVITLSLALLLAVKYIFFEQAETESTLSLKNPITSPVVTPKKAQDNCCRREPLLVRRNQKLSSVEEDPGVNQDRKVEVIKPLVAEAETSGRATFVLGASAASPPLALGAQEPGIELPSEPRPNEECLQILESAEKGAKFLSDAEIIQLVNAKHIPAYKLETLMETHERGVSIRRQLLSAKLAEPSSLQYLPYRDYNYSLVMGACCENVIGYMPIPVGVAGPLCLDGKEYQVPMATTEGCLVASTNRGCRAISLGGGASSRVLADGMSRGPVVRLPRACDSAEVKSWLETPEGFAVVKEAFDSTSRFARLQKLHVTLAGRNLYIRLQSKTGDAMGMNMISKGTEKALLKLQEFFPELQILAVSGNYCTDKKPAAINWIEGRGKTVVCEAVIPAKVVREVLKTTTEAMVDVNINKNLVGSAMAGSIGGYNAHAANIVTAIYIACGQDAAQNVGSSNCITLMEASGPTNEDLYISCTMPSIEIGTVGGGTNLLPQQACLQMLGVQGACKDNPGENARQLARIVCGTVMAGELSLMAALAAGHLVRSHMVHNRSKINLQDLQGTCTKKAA

Hepatocyte [3] = assay: Inhibition of cholesterol synthesis in rat hepatocyte; format: functional, cell-based
Mus musculus = assay: Inhibition of acute cholesterol synthesis in mouse at 1 mg/kg; format: functional; conditions: read-out: Inhibition
Syrian golden hamster = assay: Reduction of LDL cholesterol level in syrian golden hamster plasma; format: functional, Mesocricetus auratus
[4] = Ratio of Cmax for human to IC50 for rat L6 myocyte; format: functional
[5] = Cmax in human; format: ADME, organism-based; conditions: in vivo
Homo sapiens = species on record: Homo sapiens; assay: Incidence of myalgia in human; format: ADME, organism-based; conditions: in vivo

IC50 [2] | Cmax [5] | Compound | Ratio IC50 (Hepatocyte [1]) | IC50 (L6) | IC50 (Hepatocyte [3]) | inhibition in vivo at 1 mg/kg (Mus musculus) | Inhibition (Syrian golden hamster) | Ratio [4] | Activity (Homo sapiens)
8.4 nM | – | CC(C)c1c(S(=O)(=O)N2CCc3ccccc3C2)c(-c2ccc(F)cc2)c(-c2ccc(F)cc2)n1CC[C@@H](O)C[C@@H](O)CC(=O)[O-].[Na+] | 984 | 2500 nM | 2.5 nM | – | – | – | –
2 nM | – | CC(C)c1c(S(=O)(=O)Nc2ccccc2)c(-c2ccc(F)cc2)c(-c2ccc(F)cc2)n1CC[C@@H](O)C[C@@H](O)CC(=O)[O-].[Na+] | 45 | 45 nM | 0.96 nM | – | – | – | –
9.4 nM | – | CC(C)c1c(S(=O)(=O)Nc2cccc(O)c2)c(-c2ccc(F)cc2)c(-c2ccc(F)cc2)n1CC[C@@H](O)C[C@@H](O)CC(=O)[O-].[Na+] | 6250 | 2500 nM | 0.4 nM | 44.2% | – | – | –
13 nM | – | CC(C)c1c(S(=O)(=O)NCc2ccccc2)c(-c2ccc(F)cc2)c(-c2ccc(F)cc2)n1CC[C@@H](O)C[C@@H](O)CC(=O)[O-].[Na+] | 5945 | 2200 nM | 0.37 nM | 58.6% | – | – | –
9.7 nM | – | CC(C)c1c(S(=O)(=O)N2CCSCC2)c(-c2ccc(F)cc2)c(-c2ccc(F)cc2)n1CC[C@@H](O)C[C@@H](O)CC(=O)[O-].[Na+] | 1748 | 5700 nM | 3.3 nM | 15% | – | – | –
1.8 nM | – | CC(C)c1c(S(=O)(=O)N2CCC2)c(-c2ccccc2)c(-c2ccc(F)cc2)n1CC[C@@H](O)C[C@@H](O)CC(=O)[O-].[Na+] | 1954 | 2150 nM | 1.1 nM | 34.8% | – | – | –
6.1 nM | – | CC(C)c1c(S(=O)(=O)N(C)C)c(-c2ccc(F)cc2)c(-c2ccc(F)cc2)n1CC[C@@H](O)C[C@@H](O)CC(=O)[O-].[Na+] | 1866 | 1400 nM | 0.75 nM | 58.8% | 30% | – | –
4.9 nM | – | CC(C)c1c(S(=O)(=O)Nc2ccc(S(N)(=O)=O)cc2)c(-c2ccc(F)cc2)c(-c2ccc(F)cc2)n1CC[C@@H](O)C[C@@H](O)CC(=O)[O-].[Na+] | 1622 | 4380 nM | 2.7 nM | 15% | – | – | –
18 nM | – | CC(C)c1c(S(=O)(=O)Nc2cccc(C(N)=O)c2)c(-c2ccc(F)cc2)c(-c2ccc(F)cc2)n1CC[C@@H](O)C[C@@H](O)CC(=O)[O-].[Na+] | 7340 | 36000 nM | 5 nM | – | – | – | –
– | – | CC(C)c1c(S(=O)(=O)N2CCOCC2)c(-c2ccccc2)c(-c2ccc(F)cc2)n1CC[C@@H](O)C[C@@H](O)CC(=O)[O-].[Na+] | 12469 | 10000 nM | 0.8 nM | 55.6% | 11% | – | –
1 nM | – | CC(C)c1c(S(=O)(=O)Nc2cccc(CC(N)=O)c2)c(-c2ccc(F)cc2)c(-c2ccc(F)cc2)n1CC[C@@H](O)C[C@@H](O)CC(=O)[O-].[Na+] | 7299 | 10000 nM | 1.4 nM | – | – | – | –
2.7 nM | – | CC(C)c1c(S(=O)(=O)N2CCN(C)CC2)c(-c2ccccc2)c(-c2ccc(F)cc2)n1CC[C@@H](O)C[C@@H](O)CC(=O)[O-].[Na+] | 3559 | 10500 nM | 3 nM | – | – | – | –
8.5 nM | – | CC(C)c1c(S(=O)(=O)N(C)Cc2ccccc2)c(-c2ccccc2)c(-c2ccc(F)cc2)n1CC[C@@H](O)C[C@@H](O)CC(=O)[O-].[Na+] | 566 | 140 nM | 0.25 nM | – | – | – | –
9 nM | – | CC(C)c1c(S(=O)(=O)Nc2ccccc2)c(-c2ccccc2)c(-c2ccc(F)cc2)n1CC[C@@H](O)C[C@@H](O)CC(=O)[O-].[Na+] | 34 | 20 nM | 0.57 nM | 49.2% | – | – | –
5.8 nM | – | CC(C)c1c(S(=O)(=O)Nc2ccc(C(N)=O)cc2)c(-c2ccc(F)cc2)c(-c2ccc(F)cc2)n1CC[C@@H](O)C[C@@H](O)CC(=O)[O-].[Na+] | 1300 | 2340 nM | 1.8 nM | 34.4% | – | – | –
8 nM | – | CC(C)c1c(S(=O)(=O)N(C)Cc2ccccc2)c(-c2ccc(F)cc2)c(-c2ccc(F)cc2)n1CC[C@@H](O)C[C@@H](O)CC(=O)[O-].[Na+] | 797 | 550 nM | 0.69 nM | – | – | – | –
2.6 nM | – | CC(C)c1c(S(=O)(=O)N2CCCC2)c(-c2ccccc2)c(-c2ccc(F)cc2)n1CC[C@@H](O)C[C@@H](O)CC(=O)[O-].[Na+] | 10400 | 5200 nM | 0.5 nM | 75.9% | 38% | – | –
2.9 nM | – | CC(C)c1c(S(=O)(=O)N2CCCCC2)c(-c2ccccc2)c(-c2ccc(F)cc2)n1CC[C@@H](O)C[C@@H](O)CC(=O)[O-].[Na+] | 10479 | 7000 nM | 0.67 nM | 56% | – | – | –
6.5 nM | – | CC(C)c1c(S(=O)(=O)N(C)C)c(-c2ccccc2)c(-c2ccc(F)cc2)n1CC[C@@H](O)C[C@@H](O)CC(=O)[O-].[Na+] | 3066 | 1380 nM | 0.45 nM | – | – | – | –
15 nM | – | CC(C)c1c(S(=O)(=O)Nc2ccc(F)cc2)c(-c2ccc(F)cc2)c(-c2ccc(F)cc2)n1CC[C@@H](O)C[C@@H](O)CC(=O)[O-].[Na+] | 127 | 60 nM | 0.47 nM | 51.8% | – | – | –
27 nM | – | CNS(=O)(=O)c1c(-c2ccc(F)cc2)c(-c2ccc(F)cc2)n(CC[C@@H](O)C[C@@H](O)CC(=O)O)c1C(C)C | – | – | 0.22 nM | 33% | – | – | –
– | – | CC(C)c1c(C(=O)Nc2ccccc2)c(-c2ccccc2)c(-c2ccc(F)cc2)n1CC[C@@H](O)C[C@@H](O)CC(=O)O [ATORVASTATIN] | – | 142 nM | 0.99 nM | 75.2% | – | – | –
– | 25 nM | COCc1c(C(C)C)nc(C(C)C)c(/C=C/[C@@H](O)C[C@@H](O)CC(=O)O)c1-c1ccc(F)cc1 [CERIVASTATIN] | 4.1 | 7 nM | – | – | – | 3.6 | –
– | 100 nM | CC[C@H](C)C(=O)O[C@H]1C[C@H](O)C=C2C=C[C@H](C)[C@H](CC[C@@H](O)C[C@@H](O)CC(=O)O)[C@H]21 [PRAVASTATIN] | 444 | – | – | – | – | 0.01 | 10.9%
3.7 nM | 75 nM | CC(C)c1nc(N(C)S(C)(=O)=O)nc(-c2ccc(F)cc2)c1/C=C/[C@@H](O)C[C@@H](O)CC(=O)O [ROSUVASTATIN] | 926 | – | – | 82.4% | 62% | 0.3 | –
– | 120 nM | CCC(C)(C)C(=O)O[C@H]1C[C@@H](C)C=C2C=C[C@H](C)[C@H](CC[C@@H]3C[C@@H](O)CC(=O)O3)[C@H]21 [SIMVASTATIN] | – | 150 nM | – | – | – | – | 18.2%
